This assay concerns the target T1, full-length SARM1 (FL-SARM1) (Homo sapiens, UniProt Q6SZW1).
T1 sequence (Q6SZW1 28-724): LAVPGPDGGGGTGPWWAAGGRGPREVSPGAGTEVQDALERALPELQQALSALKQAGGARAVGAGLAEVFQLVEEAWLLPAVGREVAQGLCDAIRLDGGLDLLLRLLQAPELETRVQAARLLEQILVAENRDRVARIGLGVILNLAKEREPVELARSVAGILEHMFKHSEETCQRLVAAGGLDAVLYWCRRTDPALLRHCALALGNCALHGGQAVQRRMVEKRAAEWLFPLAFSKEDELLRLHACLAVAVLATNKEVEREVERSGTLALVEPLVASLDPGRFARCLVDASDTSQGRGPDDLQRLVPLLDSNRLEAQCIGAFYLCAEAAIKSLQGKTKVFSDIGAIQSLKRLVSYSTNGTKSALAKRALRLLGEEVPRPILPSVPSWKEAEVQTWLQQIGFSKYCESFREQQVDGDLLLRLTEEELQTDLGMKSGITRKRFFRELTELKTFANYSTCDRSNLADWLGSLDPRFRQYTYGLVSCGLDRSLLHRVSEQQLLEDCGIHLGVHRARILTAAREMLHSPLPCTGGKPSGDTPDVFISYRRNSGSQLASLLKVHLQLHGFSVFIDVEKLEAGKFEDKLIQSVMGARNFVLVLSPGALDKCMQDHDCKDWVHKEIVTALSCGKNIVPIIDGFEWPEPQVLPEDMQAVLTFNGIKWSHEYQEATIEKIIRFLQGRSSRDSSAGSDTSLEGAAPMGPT
Description: FL-SARM1 cellular lysate assay (NAD/NADH-Glo readout of remaining NAD+). The note with it: SARM1 cellular lysate from transfected HEK293T cells, NAD+ and NMN, 11 point curve.

The values below come from US20250361234A1 (NICO THERAPEUTICS, INC., priority 2022, published 2025).

The IC50 is the concentration that inhibits the measured activity by half. Read a high IC50 as weaker potency in that assay.

Description: Preparation of full-length SARM1 (FL-SARM1) lysate: HEK293T cells (ATCC: CRL-3216) were grown on 150 mm TC-treated dishes to 80-90% confluency in complete DMEM (Thermo Fisher: 11965175) supplemented with 10% HI-FBS (VWR: 10802-772), 1× Pen/Strep (Thermo Fisher: 15140122), 1× NEAA (Thermo Fisher: 1140050), 1× glutamax (Thermo Fisher: 35050061), and 1 mM sodium pyruvate (Thermo Fisher: 11360070)) at 37° C. and 5% CO2. One hour prior to transfection, the media was replaced with fresh, 37° C. complete DMEM (20 mL per one 150 mm dish) supplemented with additional 10 mM glucose (Alfa Aesar AAJ60067EQE). Per one 150 mm dish, 30 μg FL-SARM1 (SEQ. ID. 1; cloned in-house) plasmid was dissolved in 1 mL DMEM at ambient temperature and were mixed by inverting the tube 8-10 times. 90 μL of GenJet™ in vitro DNA transfection reagent (Ver2) was dissolved in 1 mL DMEM at ambient temperature and were mixed by inverting the tube 8-10 times. The plasmid and transfection agent solutions were combined, mixed by 8-10 inversions and incubated for 10 minutes at ambient temperature. 2 mL of this transfection mixture was added to each dish containing HEK293T cells as prepared above followed by a gentle mixing of 4-5 horizontal rotations. The dishes were incubated at 37° C. and 5% CO2 for 24 h. The dishes were removed from the incubator, the medium was aspirated and the cells were scraped off using cell scrapers in ice-cold 1× PBS (5 mL/dish, Thermo Fisher Scientific 10010023). The collected cells were centrifuged at 300 g for 5 minutes at 4° C. The supernatant was aspirated and the pellet was frozen at −80° C. until needed. The cell pellet from 30 dishes was dissolved in 30 mL 1× PBS supplemented with 4 tablets of Complete, Mini EDTA-free protease inhibitor cocktail at 4° C. This mixture was sonicated on ice for 10 minutes at 50% amplitude with a 1 second on/1 second off interval using a Model 120 sonicator (Thermo Fisher Scientific, FB120110). The lysate was centrifuged at 16000 g for 10 minutes at 4° C.
To a white 384-well Proxiplate (PerkinElmer, PE-6008280) was added 50 nL/well of a DMSO solution containing test compounds followed by 7.5 mL/well of a 0.067 mg/mL solution of SARM1 cellular lysate in reaction buffer (DPBS containing CHAPSO (0.1%) and fatty acid free BSA (0.032%)). The plate was centrifuged for 1 minute at 1000 RPM and then placed in an incubator at 23° C. for 15 minutes. To the wells were added 2.5 mL/well of a solution containing 40 mM NAD^+ and 4 mM NMN in reaction buffer. The plate was centrifuged for 1 min at 1000 RPM, the plate was sealed and placed in an incubator at 23° C. for 3.5 hours before adding 3.5 mL/well of NAD/NADH-Glo™ solution (preparation as described by Promega using the extended detection protocol). The plate was centrifuged for 1 minute at 1000 RPM and then incubated at 23° C. for 20 minutes. 1 mL/well of a 3.625 mM solution of menadione in DMSO was added and the plate was centrifuged for 1 minute at 1000 RPM. […] Percent inhibition was calculated as follows:
IC50 values were calculated from an 11 point curve using ½ log dilutions using a four-parameter logistic regression curve fit.

With `C[C@H]1CC2C[C@@H](C1)N2C(=O)Nc1ccc(Cl)c(-c2cncc(F)c2)c1` (single isomer, unassigned) [Example 80, cis-N-(4-chloro-3-(5-fluoropyridin-3-yl)phenyl)-3-methyl-6-azabicyclo[3.1.1]heptane-6-carboxamide], the IC50 is 0.07 µM (Activity (μM)) and 0.0001 to 1 µM (Activity).
Taken in the same sequence, the figures for `Cc1ccc(NC(=O)N2C3C[C@@H](C)C[C@@H]2C3)cc1-c1cncc(F)c1` (single isomer, unassigned) [Example 83, trans-N-(3-(5-fluoropyridin-3-yl)-4-methylphenyl)-3-methyl-6-azabicyclo[3.1.1]heptane-6-carboxamide] were 0.01 µM and 0.0001 to 1 µM.
Consider `Cc1nnc([C@]23C[C@H](C)C[C@H](C2)N3C(=O)Nc2ccc(C(F)(F)F)c(-c3cncc(F)c3)c2)o1` (single isomer, unassigned) [Example 120, cis-N-(3-(5-fluoropyridin-3-yl)-4-(trifluoromethyl)phenyl)-3-methyl-1-(5-methyl-1,3,4-oxadiazol-2-yl)-6-azabicyclo[3.1.1]heptane-6-carboxamide], for which the IC50 by setting is: (Activity (μM)) more than 50 µM; (Activity) more than 10 µM.
The matching figures for `Cc1nnc([C@]23C[C@H](C)C[C@H](C2)N3C(=O)Nc2ccc(C(F)(F)F)c(-c3cncc(F)c3)c2)o1` (single isomer, unassigned) [Example 121, cis-N-(3-(5-fluoropyridin-3-yl)-4-(trifluoromethyl)phenyl)-3-methyl-1-(5-methyl-1,3,4-oxadiazol-2-yl)-6-azabicyclo[3.1.1]heptane-6-carboxamide]: 0.034 µM and 0.0001 to 1 µM.
Turning to `COc1cncc(-c2cc(NC(=O)N3[C@@H]4C[C@@H](C)C[C@@]3(c3nnc(C)o3)C4)c(F)cc2C(F)(F)F)c1` (single isomer, unassigned) [Example 122, cis-N-(2-fluoro-5-(5-methoxypyridin-3-yl)-4-(trifluoromethyl)phenyl)-3-methyl-1-(5-methyl-1,3,4-oxadiazol-2-yl)-6-azabicyclo[3.1.1]heptane-6-carboxamide], the IC50 (Activity (μM)) was 10.7 µM and the IC50 (Activity) is more than 10 µM.
Taken in the same sequence, the figures for `COc1cncc(-c2cc(NC(=O)N3[C@@H]4C[C@@H](C)C[C@@]3(c3nnc(C)o3)C4)c(F)cc2C(F)(F)F)c1` (single isomer, unassigned) [Example 123, cis-N-(2-fluoro-5-(5-methoxypyridin-3-yl)-4-(trifluoromethyl)phenyl)-3-methyl-1-(5-methyl-1,3,4-oxadiazol-2-yl)-6-azabicyclo[3.1.1]heptane-6-carboxamide] were 0.006 µM and 0.0001 to 1 µM.
The matching figures for `Cc1nnc([C@]23C[C@H](C)C[C@H](C2)N3C(=O)Nc2cc(-c3cncc(F)c3)c(C)cc2F)o1` (single isomer, unassigned) [Example 124, cis-N-(2-fluoro-5-(5-fluoropyridin-3-yl)-4-methylphenyl)-3-methyl-1-(5-methyl-1,3,4-oxadiazol-2-yl)-6-azabicyclo[3.1.1]heptane-6-carboxamide]: 5.5 µM and 1 to 10 µM.
The matching figures for `Cc1nnc([C@]23C[C@H](C)C[C@H](C2)N3C(=O)Nc2cc(-c3cncc(F)c3)c(C)cc2F)o1` (single isomer, unassigned) [Example 125, cis-N-(2-fluoro-5-(5-fluoropyridin-3-yl)-4-methylphenyl)-3-methyl-1-(5-methyl-1,3,4-oxadiazol-2-yl)-6-azabicyclo[3.1.1]heptane-6-carboxamide]: 0.025 µM and 0.0001 to 1 µM.
On to `Cc1nnc([C@]23C[C@H](C)C[C@H](C2)N3C(=O)Nc2ccc(C)c(-c3cncc(F)c3)c2)o1` (single isomer, unassigned) [Example 127, cis-N-(3-(5-fluoropyridin-3-yl)-4-methylphenyl)-3-methyl-1-(5-methyl-1,3,4-oxadiazol-2-yl)-6-azabicyclo[3.1.1]heptane-6-carboxamide], for which the IC50 is 0.01 µM (Activity (μM)) and 0.0001 to 1 µM (Activity).
Taken in the same sequence, the figures for `Cc1nnc([C@]23C[C@H](C)C[C@H](C2)N3C(=O)Nc2ccc(C)c(-c3cncc(F)c3)c2)o1` (single isomer, unassigned) [Example 128, cis-N-(3-(5-fluoropyridin-3-yl)-4-methylphenyl)-3-methyl-1-(5-methyl-1,3,4-oxadiazol-2-yl)-6-azabicyclo[3.1.1]heptane-6-carboxamide] were 11.6 µM and more than 10 µM.
Take `Cc1nnc([C@]23C[C@H](C)C[C@H](C2)N3C(=O)Nc2cc(-c3cncc(F)c3)c(Cl)cc2F)o1` (single isomer, unassigned) [Example 132, cis-N-(4-chloro-2-fluoro-5-(5-fluoropyridin-3-yl)phenyl)-3-methyl-1-(5-methyl-1,3,4-oxadiazol-2-yl)-6-azabicyclo[3.1.1]heptane-6-carboxamide]: the IC50 by setting is: (Activity (μM)) 0.05 µM; (Activity) 0.0001 to 1 µM.
The matching figures for `Cc1nnc([C@]23C[C@H](C)C[C@H](C2)N3C(=O)Nc2cc(-c3cncc(F)c3)c(Cl)cc2F)o1` (single isomer, unassigned) [Example 133, cis-N-(4-chloro-2-fluoro-5-(5-fluoropyridin-3-yl)phenyl)-3-methyl-1-(5-methyl-1,3,4-oxadiazol-2-yl)-6-azabicyclo[3.1.1]heptane-6-carboxamide]: 38 µM and more than 10 µM.
Taken in the same sequence, the figures for `Cc1nnc([C@@]23C[C@@H](C)C[C@@H](C2)N3C(=O)Nc2ccc(Cl)c(-c3cncc(F)c3)c2)o1` (single isomer, unassigned) [Example 134, cis-N-[4-chloro-3-(5-fluoro-3-pyridinyl)phenyl]-3-methyl-1-(5-methyl-1,3,4-oxadiazol-2-yl)-6-azabicyclo[3.1.1]heptane-6-carboxamide] were 0.02 µM and 0.0001 to 1 µM.
On to `Cc1nnc([C@]23C[C@H](C)C[C@H](C2)N3C(=O)Nc2cc(-c3cncc(F)c3)c(C(F)(F)F)cc2F)o1` (single isomer, unassigned) [Example 135, cis-N-[2-fluoro-5-(5-fluoro-3-pyridinyl)-4-(trifluoromethyl)phenyl]-3-methyl-1-(5-methyl-1,3,4-oxadiazol-2-yl)-6-azabicyclo[3.1.1]heptane-6-carboxamide], for which the IC50 was 0.03 µM (Activity (μM)) and 0.0001 to 1 µM (Activity).
Taken in the same sequence, the figures for `Cc1ccc(NC(=O)N2C3C[C@H]2C[C@]2(C3)CC2(F)F)cc1-c1cncc(F)c1` (stereo in doubt) [Example 10, trans-2′,2′-difluoro-N-(3-(5-fluoropyridin-3-yl)-4-methylphenyl)-6-azaspiro[bicyclo[3.1.1]heptane-3,1′-cyclopropane]-6-carboxamide] were 0.3 µM and 0.0001 to 1 µM.
Taken in the same sequence, the figures for `Cc1ccc(NC(=O)N2C3C[C@@H]2C[C@@](C)(C#N)C3)cc1-c1cncc(F)c1` (stereo in doubt) [Example 43, cis-3-cyano-N-(3-(5-fluoropyridin-3-yl)-4-methylphenyl)-3-methyl-6-azabicyclo[3.1.1]heptane-6-carboxamide] were 0.5 µM and 0.0001 to 1 µM.
The matching figures for `Cc1ccc(NC(=O)N2C3C[C@H](CF)C[C@@H]2C3)cc1-c1cncc(F)c1` [Example 1, cis-3-(fluoromethyl)-N-(3-(5-fluoropyridin-3-yl)-4-methylphenyl)-6-azabicyclo[3.1.1]heptane-6-carboxamide]: 0.06 µM and 0.0001 to 1 µM.
On to `CCO[C@@H]1C[C@@H]2C[C@H](C1)N2C(=O)Nc1ccc(C)c(-c2cncc(F)c2)c1` [Example 2, cis-3-ethoxy-N-(3-(5-fluoropyridin-3-yl)-4-methylphenyl)-6-azabicyclo[3.1.1]heptane-6-carboxamide], for which the IC50 was 3.3 µM (Activity (μM)) and 1 to 10 µM (Activity).
Taken in the same sequence, the figures for `CO[C@H]1CC2C[C@H](C1)N2C(=O)Nc1cc(-c2cncc(F)c2)c(C)cc1F` [Example 3, trans-N-(2-fluoro-5-(5-fluoropyridin-3-yl)-4-methylphenyl)-3-methoxy-6-azabicyclo[3.1.1]heptane-6-carboxamide] were 2.5 µM and 1 to 10 µM.
The matching figures for `Cc1ccc(NC(=O)N2C3C[C@@H](C(F)F)C[C@@H]2C3)cc1-c1cncc(F)c1` [Example 4, trans-3-(difluoromethyl)-N-(3-(5-fluoropyridin-3-yl)-4-methylphenyl)-6-azabicyclo[3.1.1]heptane-6-carboxamide]: 0.1 µM and 0.0001 to 1 µM.
Taken in the same sequence, the figures for `Cc1ccc(NC(=O)N2C3CCC2(C)CC3)cc1-c1cncc(F)c1` [Example 5, N-(3-(5-fluoropyridin-3-yl)-4-methylphenyl)-1-methyl-7-azabicyclo[2.2.1]heptane-7-carboxamide] were 0.3 µM and 0.0001 to 1 µM.
